From PubChem BioAssay (NCI)
Several values for one entry are separate records, joined by “and”; a condition that tells them apart may be missing. Equal entries are not always repeated.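 Five compound concentrations were applied to cells in 96-well plates for 48 hours; endpoints were derived by simple linear interpolation of the resulting dose-response curve. GI50 is the concentration that inhibits growth by half. TGI: concentration producing complete growth inhibition.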

How the values were obtained:
Test in all cases: NCI tumour cell line growth inhibition, 48 h
SK-OV-3 ovarian = tested on: SK-OV-3 ovarian
SN12C renal = tested on: SN12C renal
SK-MEL-28 melanoma = tested on: SK-MEL-28 melanoma
KM12 colon = tested on: KM12 colon
HOP-92 NSCLC = tested on: HOP-92 NSCLC
NCI-H226 lung = tested on: NCI-H226 lung
MALME-3M melanoma = tested on: MALME-3M melanoma
HCT-116 colon = tested on: HCT-116 colon
T-47D breast = tested on: T-47D breast
M14 melanoma = tested on: M14 melanoma

Row | SMILES | GI50 (SK-OV-3 ovarian) | TGI (SK-OV-3 ovarian) | GI50 (SN12C renal) | TGI (SN12C renal) | GI50 (SK-MEL-28 melanoma) | TGI (SK-MEL-28 melanoma) | GI50 (KM12 colon) | TGI (KM12 colon) | GI50 (HOP-92 NSCLC) | TGI (HOP-92 NSCLC) | GI50 (NCI-H226 lung) | TGI (NCI-H226 lung) | GI50 (MALME-3M melanoma) | TGI (MALME-3M melanoma) | GI50 (HCT-116 colon) | TGI (HCT-116 colon) | GI50 (T-47D breast) | TGI (T-47D breast) | GI50 (M14 melanoma) | TGI (M14 melanoma)
1 | CC(CCC/C=C/CCCN(C)C(=N)N)CC(C)C1OC(=O)C(C)C(O)/C=C/C(C)C(O)C(C)C(O)C(C)C(O)CCCC(O)CC2(O)OC(CC(OC(=O)CC(=O)O)CC(O)CC(O)C(C)C(O)/C=C/C=C/C1C)CC(O)C2O (stereo not given) | 3 µM and 9.08 µg/mL | 11.7 µM and 18.5 µg/mL | 2.22 µM and 2.78 µg/mL | 4.97 µM and 12 µg/mL | 2.04 µM and 2.59 µg/mL | 4.05 µM and 8.56 µg/mL | 1.88 µM and 2.62 µg/mL | 3.37 µM and 9.79 µg/mL | 1.92 µM and 9.74 µg/mL | 6.57 µM and 20.1 µg/mL | 6.21 µM and 14.1 µg/mL | 24.2 µM and 26.9 µg/mL | 2.37 µM and 2.57 µg/mL | 5 µM and 11.7 µg/mL | 2.52 µM and 9.15 µg/mL | 6.13 µM and 24.4 µg/mL | 1.81 µM and 2.63 µg/mL | 4.44 µM and 11.9 µg/mL | 2.51 µM and 9.44 µg/mL | 6.32 µM and 23.9 µg/mL
2 | Cc1ccc(SCN2CCCCC2)cc1 (tested in a mixture with another compound) | – | 29.7 µM | – | 31.4 µM | – | 29.7 µM | – | 26.5 µM | – | 31 µM | – | 36.7 µM | – | 31.3 µM | – | 23.4 µM | – | > 100 µM | – | 37.3 µM
3 | COc1ccc(C2CC(c3cccc(Nc4ccnc5cc(Cl)ccc45)c3)=NN2c2ccc(Cl)cc2)cc1 (stereo not given) | 15 µM | 99.3 µM | 13 µM | > 100 µM | 7.07 µM | 66.9 µM | 0.713 µM | 23.9 µM | 10.8 µM | 66.3 µM | 14.2 µM | 94.8 µM | 22.7 µM | 59.5 µM | 2.27 µM | 19.2 µM | 0.702 µM | 33.2 µM | 0.752 µM | 11 µM
4 | Cn1c(N)c(N=Nc2ccc(S(N)(=O)=O)cc2)c(=O)n(C)c1=O | – | > 100 µM | – | > 100 µM | – | > 100 µM | – | > 100 µM | – | > 100 µM | – | > 100 µM | – | > 100 µM | – | > 100 µM | – | > 100 µM | – | > 100 µM
5 | COc1cc(C2C3=C(COC3=O)N(CCO)c3cc4c(cc32)CCC4)cc(OC)c1OC (stereo not given) | 0.0978 µM | 0.366 µM | 0.142 µM | > 32.5 µM | 1.24 µM | > 32.5 µM | 0.0707 µM | 0.29 µM | 0.862 µM | > 25.3 µM | 0.417 µM | > 32.5 µM | 0.598 µM | > 32.5 µM | 0.0919 µM | 0.409 µM | > 32.5 µM | > 32.5 µM | 0.0672 µM | 0.199 µM
6 | COc1ccc(-c2nccn2-c2cc(OC)c(OC)c(OC)c2)cc1 | 6.13 µM | > 25.6 µM | 9.81 µM | > 100 µM | 20.6 µM | > 100 µM | 0.451 µM | > 100 µM | 7.01 µM | > 100 µM | 14.6 µM | > 100 µM | 1.96 µM | > 100 µM | 1.9 µM | > 100 µM | 9.55 µM | > 100 µM | 6 µM | > 100 µM
7 | CCN(CC)CCC(CNc1c2ccc(Cl)cc2nc2ccc(OC)cc12)c1ccccc1 (stereo not given) | 1.64 µM | 3.5 µM | 1.15 µM | 4.98 µM | 1.84 µM | 3.27 µM | 0.996 µM | 4.47 µM | 1.79 µM | 3.86 µM | 1.43 µM | 4.99 µM | 1.87 µM | 3.56 µM | 0.729 µM | 3.52 µM | 2.25 µM | 4.96 µM | 1.78 µM | 3.44 µM
8 | Cc1ccc(S(=O)(=O)NC(CCCCN)C(=O)CCl)cc1 (stereo not given) | > 100 µM | > 100 µM | 35.6 µM | 77.2 µM | > 100 µM | > 100 µM | 55.9 µM | > 100 µM | 20.2 µM | 67.1 µM | 79.9 µM | > 100 µM | 68.7 µM | > 100 µM | 90.7 µM | > 100 µM | > 100 µM | > 100 µM | > 100 µM | > 100 µM
9 | C=CC(=O)N1CC[C@@H](Oc2nc(Nc3ccc(N4CCC(N5CCN(C)CC5)CC4)cc3)c(C(N)=O)nc2CC)C1 | > 100 µM | > 100 µM | > 100 µM | > 100 µM | > 100 µM | > 100 µM | > 100 µM | > 100 µM | > 100 µM | > 100 µM | > 100 µM | > 100 µM | > 100 µM | > 100 µM | > 100 µM | > 100 µM | > 100 µM | > 100 µM | > 100 µM | > 100 µM
10 | Cn1c([N+](=O)[O-])cnc1/C=C1\Oc2ccc(Cl)cc2C1=O | 2.05 µM | 7.24 µM | 0.738 µM | 3.46 µM | 1.14 µM | 5.14 µM | 0.36 µM | 1.47 µM | 1.03 µM | 4.12 µM | 1.64 µM | 4.64 µM | 1.42 µM | 4.78 µM | 0.247 µM | 0.793 µM | 4.07 µM | 46.4 µM | 0.636 µM | 4.26 µM
